One test has as its system healthy volunteers. The settings on record: seven days; cited from earlier work.
Test [1] deals with Male B6.VLep ob(-/-) (ob/ob) mice. In words: ob/ob Mouse Model of Type 2 Diabetes. The settings on record: three weeks. It is filed as in vivo. The protocol:
Male B6.VLep^ob(−/−) (ob/ob) mice and their lean littermates (Jackson Laboratory, Bar Harbor, Me.) were group housed and allowed free access to food (Purina 5015) and water. Mice were 6-7 weeks old at the start of each study. On day 0, animals were weighed and postprandial glucose levels determined (Medisense Precision-X™ glucometer, Abbott Laboratories). […] Animals were weighed, and postprandial glucose measurements were taken weekly throughout the study. On the last day of the study, 16 hours post dose (unless otherwise noted) the mice were euthanized via CO2, and blood samples (EDTA) were taken by cardiac puncture and immediately placed on ice. Whole blood measurements for HbA1c were taken with hand held meters (A1c NOW, Metrika Inc., Sunnyvale Calif.). Blood samples were then spun and plasma was removed and frozen until further analysis. The plasma triglyceride levels were determined according to instructions by the manufacturer (Infinity kit, Sigma Diagnostics, St. Louis Mo.).

The subject of the next test is Male CD-1 mice. The test can be described thus: Mouse Dehydrocorticosterone Challenge Model, plasma corticosterone. In kind it is in vivo. The protocol: Male CD-1 (18-22 g) mice (Charles River, Madison, Wis.) were group housed and allowed free access to food and water. Mice are brought into a quiet procedure room for acclimation the night before the study. Animals are dosed with vehicle or compound at various times (pretreatment period) before being challenged with 11-dehydrocorticosterone (Steraloids Inc., Newport, R.I.). Thirty minutes after challenge, the mice are euthanized with CO2 and blood samples (EDTA) are obtained by cardiac puncture and immediately placed on ice. Blood samples were then spun, the plasma was removed, and the samples frozen until further analysis was performed. Corticosterone levels were obtained by ELISA (American Laboratory Prod., Co., Windham, N.H.) or HPLC/mass spectroscopy.

As to `CC1(C)[C@@H](OC(=O)CCC(=O)O)CC[C@]2(C)[C@H]3C(=O)C=C4[C@@H]5C[C@@](C)(C(=O)O)CC[C@]5(C)CC[C@@]4(C)[C@]3(C)CC[C@@H]12` [carbenoxolone], the “reduction of IOP” value with healthy volunteers was 17%.
For the compound `CC(C(=O)NC1C2CC3CC1CC(O)(C3)C2)N1CCN(c2ccc(C(F)(F)F)cn2)CC1` (stereo not shown) [Compound F, N-[(E)-5-hydroxy-2-adamantyl]-2-{4-[5-(trifluoromethyl)pyridin-2-yl]piperazin-1-yl}propanamide], the “% HbA1c” value in test [1] (30 mpk twice daily) was determined as 7.6 ± 0.6%; in test [1] (100 mpk twice daily), 6.4 ± 0.5%. The figures for the Glucose in test [1] (30 mpk twice daily) and in test [1] (100 mpk twice daily) were 295 ± 31 mg/dL and 263 ± 21 mg/dL, respectively. Further, the Triglycerides in test [1] (30 mpk twice daily) is 255 ± 22 mg/dL; in test [1] (100 mpk twice daily), 282 ± 36 mg/dL. In addition, the Plasma corticosterone levels in the test with Male CD-1 mice (30 mpk followed by 11-DHC, pretreatment period 0.5 hours) stood at 1297 ± 121; in the test with Male CD-1 mice (30 mpk followed by 11-DHC, pretreatment period 16 hours) it was 1402 ± 99; in the test with Male CD-1 mice (100 mpk followed by 11-DHC, pretreatment period 0.5 hours), 742 ± 119; in the test with Male CD-1 mice (100 mpk followed by 11-DHC, pretreatment period 16 hours), 1422 ± 129.
As for `C[C@]12CC(=O)[C@H]3[C@@H](CCC4=CC(=O)CC[C@@]43C)[C@@H]1CC[C@@H]2C(=O)CO` [Example 11-DHC, 11-dehydrocorticosterone, reference compound], the Plasma corticosterone levels with Male CD-1 mice (11-DHC challenge without compound, pretreatment period 0.5 hours) worked out at 1478 ± 180; in the test on Male CD-1 mice (11-DHC challenge without compound, pretreatment period 16 hours), 1200 ± 86.

(Values after patent publication US20050245534A1, “Inhibitors of the 11-beta-hydroxysteroid dehydrogenase Type 1 enzyme” (priority 2004, published 2005).)
